{"source": "patent US8481515B2", "about": "“Derivatives of cholest-4-en-3-one oxime, pharmaceutical compositions containing them and preparation method” (Trophos, priority 2005, dated 2013)", "key": {"striatal neurons": {"system": "striatal neurons", "test": "protection of striatal neurons against death induced by overexpression of a mutated form of huntingtin", "assay_type": "cell-based", "settings": "7 days, living cells expressing GFP", "protocol": "Primary cultures of striatal neurons are prepared and they are described in the literature (Primary striatal neuronal culture, Mao L. et al., Methods Mol. Med., 2003, 79:379-86). […] A second expression vector containing the DNA coding for the green fluorescent protein (GFP) is also electroporated and is used as a reporter gene. The DNA of the plasmid coding for the huntingtin was prepared by purifying with cesium chloride. The plasmid containing the GFP sequence was prepared on Qiagen columns. The integrity of the DNA sequences is checked by sequencing, transfection and Western blotting. The cells which survive electroporation are sown at a density of 4,000 cellules per well of 96-well plates. The culture is accomplished in neurobasal medium (GIBCO) supplemented with pyruvate and B-27 (Beckton Dickinson). The cells are maintained in culture for 7 days without changing the medium.\n[…] Positive controls are made by adding BDNF at a final level of 5 ng/ml. The negative controls only receive 0.5% DMSO.\nCell death is evaluated after 7 days by counting the number of living cells expressing GFP.\nThe activity of the compounds to be tested was evaluated by their capacity of preventing death of striatal neurons cultivated in the neurobasal medium as compared with the survival of striatal neurons in a medium supplemented with BDNF (Brain-Derived Neurotrophic Factor)."}, "rat motoneurons": {"system": "rat motoneurons", "test": "in vitro trophic deprivation model of rat motoneurons (survival, calcein fluorescence)", "assay_type": "cell-based", "settings": "3 days of culture, no trophic factors", "description": "It may be helpful to refer to Patent Application WO 0142784 of the applicant on the culture of spinal cord motoneurons.\nThe spinal cord of E14 rat embryos is dissected and the ventral portion is dissociated by trituration after trypsinization. The motoneurons are separated from the other spinal cells by a known method (Camu et al, 1993, Purification of spinal motoneurons from chicken and rat embryos by immunopanning. In <<Immunoselection Strategies for Neural cell culture>>), Neuroprotocols: A companion to Methods in Neurosciences 2, 191-199; Henderson et al., 1993, Neutrophins promote motor neuron survival and are present in embryonic limb bud. Nature 363 (6426):266-70). The cells are centrifuged on a density gradient. The motoneurons are enriched with the fraction of large (the less dense) cells. The cells of this fraction are incubated with an anti-p75 antibody, a surface antigen present on motoneurons. Secondary antibodies coupled with magnetic beads are added and the cell mixture is passed through a column in a magnet (Arce et al, 1999 Cardiotrophin-1 requires LIFRbeta to promote survival of mouse motoneurons purified by a novel technique. J. Neurosci Res 55(1): 119-26). Only motoneurons are retained: their purity is of the order of 90%.\nThe motoneurons are sown at low density in culture wells on a polyornithine-laminine substrate in a neurobasal medium (GIBCO) supplemented according to Raoul et al, 1999, Programmed cell death of embryonic motoneurons triggered through the Fas death receptor. J. Cell. Biol. 147(5):1049-62. Negative (absence of trophic factors) controls and positive controls (in the presence of 1 ng/ml BDNF (Brain-Derived Neurotrophic Factor), 1 ng/ml GDNF (Glial-Derived Neurotrophic Factor) and 10 ng/ml CNTF (Ciliary Neurotrophic Factor) as marketed by the US company PEPROTECH, Inc. and Sigma-Aldrich) are included in each series.\nThe compounds to be tested are added 60 minutes after sowing and the cultures are maintained at 37° C. under 5% CO2 for 3 days.\nThe motoneurons tend to die spontaneously in the absence of neurotrophic factors (Pettmann and Henderson, 1998, Neuronal cell death. Neuron 20(4):633-47). After 3 days, survival is evaluated by a fluorescence measurement after incubation of the cells in the presence of calcein which becomes fluorescent in living cells.\nAfter 3 days of culture at 37° C. under 5% CO2 and in saturating humidity, up to 50% of the initially sown motoneurons survive in the medium supplemented with neurotrophic factors, whereas less than 15% of the motoneurons survive in a culture medium not added with neurotrophic factors.\nThe neuroprotective activity of the compounds to be tested was evaluated by their capacity of preventing the death of motoneurons when they are added to the Neurobasal medium (GIBCO) as compared with survival of the motoneurons in a medium added with neurotrophic factors.\nThe compounds of formula I according to the invention have shown neuroprotective activity at a concentration capable of providing a better survival rate of the motoneurons in the Neurobasal medium. This survival rate is expressed by the number of living cells after treatment with the compound to be tested as compared with survival induced by neurotrophic factors. This ratio therefore represents the survival percentage due to the tested compound as compared with the survival induced by neurotrophic factors. If the ratio is greater than 0, the effect of the compound is positive for the survival of motoneurons."}, "cortical neurons": {"system": "cortical neurons", "test": "protection of cortical neurons against camptothecin-induced death (calcein-AM cell count)", "assay_type": "cell-based, Sprague-Dawley rat", "settings": "10 μM camptothecin, 16 hours, mean ± standard deviation, n = 8 wells", "protocol": "Cortical neurons were prepared from Sprague-Dawley rat embryos in the E18 pregnancy stage and cultivated in a 96-well plate at a density of 333 cells/mm^2 in Neurobasal medium (Invitrogen) supplemented with 2% B27 (Invitrogen) and 2% sodium pyruvate. With these culture conditions, it is possible to obtain very good cortical neuron purity in the cultures. After 6 days in culture, the death of cortical neurons was induced by adding 10 μM camptothecin dissolved in dimethyl sulfoxide (DMSO). At the same moment, the neurons were treated with different concentrations of the compound to be tested. The final DMSO concentration after treatment is 1%. After 16 hours of incubation with camptothecin, the survival of the neurons was evaluated by counting the surviving cells. To do this, the cells were incubated for 20 minutes in the presence of a vital dye, calcein-AM (Invitrogen) at 2 μg/ml. After labelling, each culture well was analyzed by means of an imaging station (Flash Cytometer, TROPHOS, FRANCE) provided with an image analysis software package TINA 4.5 (TROPHOS, France) allowing acquisition of digital images of the whole of the well (exposure time 40 ms). The cells, defined by pixel size criteria (min=10; max=40), were then counted by means of the Tina 4.5 software package (TROPHOS)"}}, "data": [{"molecule": "CC(C)CCC[C@@H](C)[C@H]1CC[C@H]2[C@@H]3CC(=O)C4=CC(=NO)CC[C@]4(C)[C@H]3CC[C@]12C", "note": "[Example 3, 3-oxyimino-cholest-4-en-6-one]", "values": [{"measurement": "Ratio (survival of striatal neurons as compared with survival in medium supplemented with BDNF)", "setting": "striatal neurons; concentration 1 μM", "value": 0.3}, {"measurement": "Ratio (survival of motoneurons with compound as compared with survival induced by neurotrophic factors)", "setting": "rat motoneurons; concentration 3 μM", "value": 0.60}, {"measurement": "Cell viability (%)", "setting": "cortical neurons; 0.1 μM compound", "value": "63.3 ± 20.3", "unit": "%"}, {"measurement": "Cell viability (%)", "setting": "cortical neurons; 0.3 μM compound", "value": "99.1 ± 15.7", "unit": "%"}, {"measurement": "Cell viability (%)", "setting": "cortical neurons; 1 μM compound", "value": "112.2 ± 22.3", "unit": "%"}]}, {"molecule": "CCC(C=C[C@@H](C)[C@H]1CC[C@H]2[C@@H]3CC(=O)C4=CC(=NO)CC[C@]4(C)[C@H]3CC[C@]12C)C(C)C", "note": "(stereo partly shown) [Example 7, 24-ethyl-3-oxyimino-cholest-4,22-dien-6-one]", "values": [{"measurement": "Ratio (survival of motoneurons with compound as compared with survival induced by neurotrophic factors)", "setting": "rat motoneurons; concentration 1 μM", "value": 0.46}]}, {"molecule": "CC(C)CCC[C@@H](C)[C@H]1CC[C@H]2[C@@H]3CC(=NO)C4=CC(=NO)CC[C@]4(C)[C@H]3CC[C@]12C", "note": "[Example 9, cholest-4-en-3,6-dioxime]", "values": [{"measurement": "Ratio (survival of striatal neurons as compared with survival in medium supplemented with BDNF)", "setting": "striatal neurons; concentration 0.3 μM", "value": 0.5}, {"measurement": "Ratio (survival of motoneurons with compound as compared with survival induced by neurotrophic factors)", "setting": "rat motoneurons; concentration 0.6 μM", "value": 0.25}]}, {"molecule": "CC(C)=CCC[C@@H](C)[C@H]1CC[C@H]2[C@@H]3CC(=NO)C4=CC(=NO)CC[C@]4(C)[C@H]3CC[C@]12C", "note": "[Example 10, cholest-4,24-dien-3,6-dioxime]", "values": [{"measurement": "Ratio (survival of motoneurons with compound as compared with survival induced by neurotrophic factors)", "setting": "rat motoneurons; concentration 1 μM", "value": 0.25}]}, {"molecule": "CCC(C=C[C@@H](C)[C@H]1CC[C@H]2[C@@H]3CC(=NO)C4=CC(=NO)CC[C@]4(C)[C@H]3CC[C@]12C)C(C)C", "note": "(stereo partly shown) [Example 13, 24-ethyl-cholest-4,22-dien-3,6-dioxime]", "values": [{"measurement": "Ratio (survival of motoneurons with compound as compared with survival induced by neurotrophic factors)", "setting": "rat motoneurons; concentration 1 μM", "value": 0.34}]}]}
